Patent publication US12540150B1, “Fluorogenic probe using a Mislow-Evans rearrangement for real-time imaging of hydrogen peroxide” (University of Pittsburgh—Of the Commonwealth System of …, priority 2020, dated 2026)
Several values for one entry are separate records, joined by “and”; a condition that tells them apart may be missing. Equal values may be shown once.

Key:
[1] = Selectivity of 1: reaction with NO2^−; details: for Fluorescence: change over first 15 min
Description: It was then sought to determine whether RNS would react with 1 to produce fluorescence. The probe 1 was first exposed to NO2^− at various concentrations. NaNO2 (97.0 mg) was dissolved in ultrapure water (2.00 mL). […] A solution of 100 μM 1 in ethanol (20 μL) was added to 5:95 methanol/50 mM phosphate pH 7 buffer (160 μL). The NaNO2 or H2O2 solutions (20 μL) were added to the solution containing 1 and the fluorescence intensity was measured immediately and again after incubation at 25° C. for 15 min. The fluorescence change over the first 15 min was reported for NO2^− in FIG. 20 and Table 11.

[2] = Selectivity of 1: reaction with tBuOOH; details: for Fluorescence Intensity: pH 7, 25° C., 15 min
Description: 'BuOOH was also tested for reactivity with 1. A solution of 5:95 MeCN/50 mM phosphate pH 7 buffer (160 μL) was added to the wells of a black 96-well plate. 10 μM 1 in DMSO (20 μL) was added to each well. 0 mM H2O2 in water (20 μL) or 0, 10, or 100 μM tBuOOH in DMSO (20 μL) were then added to the wells.

With `Oc1ccc2c(c1)Oc1cc(O/C=C/C[Se]c3ccccc3)ccc1[C@@]21OCc2ccccc21` [Compound 1, (S,E)-6′-((3-(Phenylselanyl)prop-1-en-1-yl)oxy)-3H-spiro[isobenzofuran-1,9′-xanthen]-3′-ol] the “reaction with NO2^−” value [1] was “did not react”, the Fluorescence ([1]; 0 μM NO2^− or H2O2, pH 7, 25° C.) was 24,359 and 26,870 and 26,226 and the Fluorescence ([1]; 0.1 μM H2O2) was 58,172 and 52,104 and 52,249. The Fluorescence ([1]; 0.1 μM NO2^−) was 31,075 and 36,429 and 27,504, the Fluorescence ([1]; 1 μM H2O2) was 266,770 and 242,313 and 222,834 and the Fluorescence ([1]; 1 μM NO2^−) was 26,768 and 31,470 and 33,004. The “fluorescence with tBuOOH” value [2] was “did not produce fluorescence even at 10 μM”, the “Fluorescence Intensity” value ([2]; 10 μM ^tBuOOH) was 31,650 and 28,922 and 33,363 and the “Fluorescence Intensity” value ([2]; H2O2) was 277,013 and 296,506 and 250,145. For the same molecule, the “Fluorescence Intensity” value ([2]; no ROS) was 34,525 and 36,401 and 39,836.
